Test results published in EP3858439A1 (priority 2020, dated 2021).
Counter-ions that a name gives are not always drawn. Like-named read-outs stand apart in the source and are kept apart here.

Biological target: T1, human µ-opioid receptor (Homo sapiens, UniProt P35372)
T1 construct: expressed in transfected cells; host or cells: CHO-K1
Assay: Binding assay to human µ-opioid receptor ([3H]-DAMGO displacement)
Protocol: Binding assay to human µ-opioid receptor
Transfected CHO-K1 cell membranes (20 µg) were incubated with [^3H]-DAMGO (1 nM) in assay buffer containing Tris-HCl 50 mM, MgCl2 5 mM at pH 7.4.
Plates were incubated at 27 °C for 60 min. After the incubation period, the reaction mixture was then transferred to MultiScreen HTS, FC plates (Millipore), filtered and plates were washed 3 times with ice-cold 10 mM Tris-HCl (pH 7.4).
Filters were dried and counted at approximately 40% efficiency in a MicroBeta scintillation counter (Perkin-Elmer) using EcoScint liquid scintillation cocktail.

[1] = Table 2, transfected CHO-K1 cell membranes, [3H]-DAMGO 1 nM, 60 min at 27 °C, read-out: Binding µ

T1 sequence (P35372 whole entry): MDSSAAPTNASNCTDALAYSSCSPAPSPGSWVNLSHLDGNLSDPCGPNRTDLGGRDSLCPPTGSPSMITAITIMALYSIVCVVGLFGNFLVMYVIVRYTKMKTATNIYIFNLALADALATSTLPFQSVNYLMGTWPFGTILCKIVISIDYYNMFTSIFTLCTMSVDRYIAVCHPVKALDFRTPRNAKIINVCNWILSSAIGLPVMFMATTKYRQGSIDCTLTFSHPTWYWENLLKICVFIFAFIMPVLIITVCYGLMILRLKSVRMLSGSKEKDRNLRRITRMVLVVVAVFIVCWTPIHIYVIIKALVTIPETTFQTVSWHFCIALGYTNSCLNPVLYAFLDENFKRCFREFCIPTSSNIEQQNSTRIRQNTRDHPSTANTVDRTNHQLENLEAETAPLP

Row | SMILES | Ki | Ki [1]
1 | CNCC(Cc1ccccc1F)C(=O)N1CCC(c2ccccc2)(N(C)C)CC1 (stereo not drawn) [Example 57, 1-(4-(dimethylamino)-4-phenylpiperidin-1-yl)-2-(2-fluorobenzyl)-3-(methylamino)propan-1-one dihydrochloride] | < 100 nM | 
2 | CC[C@@H](c1ccccc1)[C@@H](CNC)C(=O)N1CCC(NC)(c2ccc(F)cc2)CC1 [Example 65, (2S,3R)-1-(4-(4-fluorophenyl)-4-(methylamino)piperidin-1-yl)-2-((methylamino)methyl)-3-phenylpentan-1-one] |  | < 100 nM
3 | CC[C@@H](c1cccc(Cl)c1)[C@@H](CN)C(=O)N1CCC(c2ccccc2)(N(C)C)CC1 [Example 66, (2S,3R)-2-(aminomethyl)-3-(3-chlorophenyl)-1-(4-(dimethylamino)-4-phenylpiperidin-1-yl)pentan-1-one] |  | < 100 nM
4 | CC[C@@H](c1cccc(Cl)c1)[C@@H](CNC)C(=O)N1CCC(c2ccccc2)(N(C)C)CC1 [Example 67, (2S,3R)-3-(3-chlorophenyl)-1-(4-(dimethylamino)-4-phenylpiperidin-1-yl)-2-((methylamino)methyl)pentan-1-one] |  | < 100 nM
5 | CC[C@@H](c1cccc(Cl)c1)[C@@H](CNC)C(=O)N1CCC(NC)(c2ccc(F)cc2)CC1 [Example 69, (2S,3R)-3-(3-chlorophenyl)-1-(4-(4-fluorophenyl)-4-(methylamino)piperidin-1-yl)-2-((methylamino)methyl)pentan-1-one] |  | < 100 nM
6 | CNCC(Cc1ccccc1)C(=O)N1CCC(c2ccccc2)(N(C)C)CC1 (stereo not drawn) [Example 70, 2-benzyl-1-(4-(dimethylamino)-4-phenylpiperidin-1-yl)-3-(methylamino)propan-1-one] | 100 to 500 nM | 
7 | Cc1ccccc1CC(CN)C(=O)N1CCC(c2ccccc2)(N(C)C)CC1 (stereo not drawn) [Example 75, 3-Amino-1-(4-(dimethylamino)-4-phenylpiperidin-1-yl)-2-(2-methylbenzyl)propan-1-one dihydrochloride] | 100 to 500 nM | 
8 | CN(C)C1(c2ccccc2)CCN(C(=O)C(CNCc2ccccc2)Cc2ccccc2)CC1 (stereo not drawn) [Example 76, 2-Benzyl-3-(benzylamino)-1-(4-(dimethylamino)-4-phenylpiperidin-1-yl)propan-1-one dihydrochloride] | < 100 nM | 
9 | CNC[C@H](Cc1ccccc1)C(=O)N1CCC(c2ccccc2)(N(C)C)CC1 [Example 79, (S)-2-Benzyl-1-(4-(dimethylamino)-4-phenylpiperidin-1-yl)-3-(methylamino)propan-1-one dihydrochloride] | < 100 nM | 
10 | CNC[C@@H](C(=O)N1CCC(c2ccccc2)(N(C)C)CC1)[C@H](C)c1ccccc1 [Example 85, (2S,3S)-1-(4-(Dimethylamino)-4-phenylpiperidin-1-yl)-2-((methylamino)methyl)-3-phenylbutan-1-one] | 100 to 500 nM | 
11 | CNC[C@H](C(=O)N1CCC(c2ccccc2)(N(C)C)CC1)[C@@H](C)c1ccccc1 [Example 86, (2R,3R)-1-(4-(dimethylamino)-4-phenylpiperidin-1-yl)-2-((methylamino)methyl)-3-phenylbutan-1-one] |  | < 100 nM
12 | CNC[C@H](C(=O)N1CCC(c2ccccc2)(N(C)C)CC1)[C@H](C)c1ccccc1 [Example 87, (2R,3S)-1-(4-(dimethylamino)-4-phenylpiperidin-1-yl)-2-((methylamino)methyl)-3-phenylbutan-1-one] | 100 to 500 nM | 
